Test results from patent US11445724B2, “Insecticidal compounds” (SYNGENTA PARTICIPATIONS AG, priority 2013, dated 2022).

How the values were obtained:
Format in all cases: in vivo
[1] = tested on: Plutella xylostella (Diamond back moth); assay: Plutella xylostella (Diamond back moth) larval mortality, artificial diet in 24-well MTP; details: 144 h, application rate 200 ppm (concentration in well 18 ppm), L2 larvae, larval mortality after 6 days
[2] = tested on: Myzus persicae (Green peach aphid); assay: Myzus persicae (Green peach aphid) mortality, sprayed sunflower leaf discs; details: foliar, 144 h, 200 ppm spray on sunflower leaf discs, mixed ages, mortality 6 DAT
[3] = tested on: Tetranychus urticae (Two-spotted spider mite); assay: Tetranychus urticae (Two-spotted spider mite) mortality, sprayed bean leaf discs; details: foliar, 192 h, 200 ppm spray on bean leaf discs, mixed ages, egg, larval and adult mortality after 8 days
[4] = tested on: Diabrotica balteata (Corn root worm); assay: Diabrotica balteata (Corn root worm) larval mortality, artificial diet in 24-well MTP; details: 120 h, application rate 200 ppm (concentration in well 18 ppm), L2 larvae, larval mortality after 5 days
[5] = tested on: Myzus persicae (Green peach aphid); assay: Myzus persicae (Green peach aphid) mortality, test compounds mixed with Sucrose solution under Parafilm; details: 120 h, 12.5 ppm in Sucrose solution, infested pea seedlings on Parafilm, mortality 5 days after infestation
[6] = tested on: Thrips tabaci (Onion thrips); assay: Thrips tabaci (Onion thrips) mortality, sprayed sunflower leaf discs; details: foliar, 168 h, 200 ppm spray on sunflower leaf discs, mixed ages, mortality after 7 days
[7] = tested on: Spodoptera littoralis (Egyptian cotton leafworm); assay: Spodoptera littoralis (Egyptian cotton leafworm) mortality, sprayed cotton leaf discs; details: foliar, 72 h, 200 ppm spray on cotton leaf discs, L1 larvae, mortality 3 DAT

O=C(Nc1cccc(C(=O)Nc2c(Br)cc(C(F)(C(F)(F)F)C(F)(F)F)cc2OC(F)F)c1F)c1ccc(OC(F)(F)F)cc1 [Compound 26]
≥ 80%: pest or weed control at 200 ppm [1] | pest or weed control at 200 ppm [2] | pest or weed control at 200 ppm [3] | pest or weed control at 200 ppm [4] | pest or weed control at 12.5 ppm [5] | pest or weed control at 200 ppm [6] | pest or weed control at 200 ppm [7]

O=C(Nc1cccc(C(=O)Nc2c(Br)cc(C(F)(C(F)(F)F)C(F)(F)F)cc2OC(F)F)c1F)c1ccc(F)c(C(F)(F)F)c1 [Compound 27]
≥ 80%: pest or weed control at 200 ppm [1] | pest or weed control at 200 ppm [2] | pest or weed control at 200 ppm [3] | pest or weed control at 200 ppm [4] | pest or weed control at 12.5 ppm [5] | pest or weed control at 200 ppm [6] | pest or weed control at 200 ppm [7]

O=C(Nc1cccc(C(=O)Nc2c(Br)cc(C(F)(C(F)(F)F)C(F)(F)F)cc2OC(F)F)c1F)c1ccc(C(F)(F)F)cc1 [Compound 28]
≥ 80%: pest or weed control at 200 ppm [1] | pest or weed control at 200 ppm [2] | pest or weed control at 200 ppm [3] | pest or weed control at 200 ppm [4] | pest or weed control at 12.5 ppm [5] | pest or weed control at 200 ppm [6] | pest or weed control at 200 ppm [7]

O=C(Nc1cccc(C(=O)Nc2c(Br)cc(C(F)(C(F)(F)F)C(F)(F)F)cc2OC(F)F)c1F)c1ccccc1 [Compound 31]
≥ 80%: pest or weed control at 200 ppm [1] | pest or weed control at 200 ppm [2] | pest or weed control at 200 ppm [3] | pest or weed control at 200 ppm [4] | pest or weed control at 12.5 ppm [5] | pest or weed control at 200 ppm [6] | pest or weed control at 200 ppm [7]

O=C(Nc1cccc(C(=O)Nc2c(Br)cc(C(F)(C(F)(F)F)C(F)(F)F)cc2OC(F)F)c1F)c1ccc(F)cc1 [Compound 32]
≥ 80%: pest or weed control at 200 ppm [1] | pest or weed control at 200 ppm [2] | pest or weed control at 200 ppm [3] | pest or weed control at 200 ppm [4] | pest or weed control at 12.5 ppm [5] | pest or weed control at 200 ppm [6] | pest or weed control at 200 ppm [7]

O=C(Nc1cccc(C(=O)Nc2c(Br)cc(C(F)(C(F)(F)F)C(F)(F)F)cc2OC(F)F)c1F)c1ccc(F)cc1Cl [Compound 36]
≥ 80%: pest or weed control at 200 ppm [1] | pest or weed control at 200 ppm [2] | pest or weed control at 200 ppm [3] | pest or weed control at 200 ppm [4] | pest or weed control at 12.5 ppm [5] | pest or weed control at 200 ppm [6] | pest or weed control at 200 ppm [7]

O=C(Nc1cccc(C(=O)Nc2c(Br)cc(C(F)(C(F)(F)F)C(F)(F)F)cc2OC(F)F)c1F)c1cccc(F)c1F [Compound 38]
≥ 80%: pest or weed control at 200 ppm [1] | pest or weed control at 200 ppm [2] | pest or weed control at 200 ppm [3] | pest or weed control at 200 ppm [4] | pest or weed control at 12.5 ppm [5] | pest or weed control at 200 ppm [6] | pest or weed control at 200 ppm [7]

COc1c(NC(=O)c2ccc([N+](=O)[O-])cc2)cccc1C(=O)Nc1c(Br)cc(C(F)(C(F)(F)F)C(F)(F)F)cc1OC(F)F [Compound 39]
≥ 80%: pest or weed control at 200 ppm [1] | pest or weed control at 200 ppm [2] | pest or weed control at 200 ppm [3] | pest or weed control at 200 ppm [4] | pest or weed control at 12.5 ppm [5] | pest or weed control at 200 ppm [6] | pest or weed control at 200 ppm [7]

O=C(Nc1cccc(C(=O)Nc2c(Br)cc(C(F)(C(F)(F)F)C(F)(F)F)cc2OC(F)F)c1F)c1ccc(F)cc1F [Compound 40]
≥ 80%: pest or weed control at 200 ppm [1] | pest or weed control at 200 ppm [2] | pest or weed control at 200 ppm [3] | pest or weed control at 200 ppm [4] | pest or weed control at 12.5 ppm [5] | pest or weed control at 200 ppm [6] | pest or weed control at 200 ppm [7]

COc1c(NC(=O)c2ccc([N+](=O)[O-])cc2Cl)cccc1C(=O)Nc1c(Br)cc(C(F)(C(F)(F)F)C(F)(F)F)cc1OC(F)F [Compound 47]
≥ 80%: pest or weed control at 200 ppm [1] | pest or weed control at 200 ppm [2] | pest or weed control at 200 ppm [3] | pest or weed control at 200 ppm [4] | pest or weed control at 12.5 ppm [5] | pest or weed control at 200 ppm [6] | pest or weed control at 200 ppm [7]

O=C(Nc1cccc(C(=O)Nc2c(Cl)cc(C(F)(C(F)(F)F)C(F)(F)F)cc2OC(F)F)c1F)c1ccc([N+](=O)[O-])cc1 [Compound 49]
≥ 80%: pest or weed control at 200 ppm [1] | pest or weed control at 200 ppm [2] | pest or weed control at 200 ppm [3] | pest or weed control at 200 ppm [4] | pest or weed control at 12.5 ppm [5] | pest or weed control at 200 ppm [6] | pest or weed control at 200 ppm [7]

COc1c(NC(=O)c2ccc(OC(F)(F)F)cc2)cccc1C(=O)Nc1c(Br)cc(C(F)(C(F)(F)F)C(F)(F)F)cc1OC(F)F [Compound 50]
≥ 80%: pest or weed control at 200 ppm [1] | pest or weed control at 200 ppm [2] | pest or weed control at 200 ppm [3] | pest or weed control at 200 ppm [4] | pest or weed control at 12.5 ppm [5] | pest or weed control at 200 ppm [6] | pest or weed control at 200 ppm [7]

Cc1ccc(C(=O)Nc2cccc(C(=O)Nc3c(Cl)cc(C(F)(C(F)(F)F)C(F)(F)F)cc3OC(F)F)c2F)cc1 [Compound 51]
≥ 80%: pest or weed control at 200 ppm [1] | pest or weed control at 200 ppm [2] | pest or weed control at 200 ppm [3] | pest or weed control at 200 ppm [4] | pest or weed control at 12.5 ppm [5] | pest or weed control at 200 ppm [6] | pest or weed control at 200 ppm [7]

Cc1cc(F)ccc1C(=O)Nc1cccc(C(=O)Nc2c(Cl)cc(C(F)(C(F)(F)F)C(F)(F)F)cc2OC(F)F)c1F [Compound 53]
≥ 80%: pest or weed control at 200 ppm [1] | pest or weed control at 200 ppm [2] | pest or weed control at 200 ppm [3] | pest or weed control at 200 ppm [4] | pest or weed control at 12.5 ppm [5] | pest or weed control at 200 ppm [6] | pest or weed control at 200 ppm [7]

COc1c(NC(=O)c2ccc(C(F)(F)F)cc2)cccc1C(=O)Nc1c(Br)cc(C(F)(C(F)(F)F)C(F)(F)F)cc1OC(F)F [Compound 54]
≥ 80%: pest or weed control at 200 ppm [1] | pest or weed control at 200 ppm [2] | pest or weed control at 200 ppm [3] | pest or weed control at 200 ppm [4] | pest or weed control at 12.5 ppm [5] | pest or weed control at 200 ppm [6] | pest or weed control at 200 ppm [7]

O=C(Nc1cccc(C(=O)Nc2c(Cl)cc(C(F)(C(F)(F)F)C(F)(F)F)cc2OC(F)F)c1F)c1ccc([N+](=O)[O-])cc1Cl [Compound 57]
≥ 80%: pest or weed control at 200 ppm [1] | pest or weed control at 200 ppm [2] | pest or weed control at 200 ppm [3] | pest or weed control at 200 ppm [4] | pest or weed control at 12.5 ppm [5] | pest or weed control at 200 ppm [6] | pest or weed control at 200 ppm [7]

O=C(Nc1cccc(C(=O)Nc2c(Cl)cc(C(F)(C(F)(F)F)C(F)(F)F)cc2OC(F)F)c1F)c1ccc(OC(F)(F)F)cc1 [Compound 60]
≥ 80%: pest or weed control at 200 ppm [1] | pest or weed control at 200 ppm [2] | pest or weed control at 200 ppm [3] | pest or weed control at 200 ppm [4] | pest or weed control at 12.5 ppm [5] | pest or weed control at 200 ppm [6] | pest or weed control at 200 ppm [7]

COc1c(NC(=O)c2ccc(F)cc2)cccc1C(=O)Nc1c(Br)cc(C(F)(C(F)(F)F)C(F)(F)F)cc1OC(F)F [Compound 61]
≥ 80%: pest or weed control at 200 ppm [1] | pest or weed control at 200 ppm [2] | pest or weed control at 200 ppm [3] | pest or weed control at 200 ppm [4] | pest or weed control at 12.5 ppm [5] | pest or weed control at 200 ppm [6] | pest or weed control at 200 ppm [7]

O=C(Nc1cccc(C(=O)Nc2c(Cl)cc(C(F)(C(F)(F)F)C(F)(F)F)cc2OC(F)F)c1F)c1ccc(C(F)(F)F)cc1 [Compound 64]
≥ 80%: pest or weed control at 200 ppm [1] | pest or weed control at 200 ppm [2] | pest or weed control at 200 ppm [3] | pest or weed control at 200 ppm [4] | pest or weed control at 12.5 ppm [5] | pest or weed control at 200 ppm [6] | pest or weed control at 200 ppm [7]
